In ChEMBL document CHEMBL1201862, “PubChem BioAssay data set” (2004):
The source made the active and inactive calls.

How the values were obtained:
[1] = viability loss in CEM21 cells – cell-based, CellTiter-Glo luminescence, cherry-picked, cytotoxicity control for viral fusion inhibitor project, dose response (AID 652042); type: functional;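 note: potency for signal decrease meaning cytotoxicity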
[2] = blockers of HIV-1 ZM109 envelope-driven cell-cell fusion – HeLa effector, CEM target cells, luciferase, cherry-pick, dose response (AID 652058); type: functional, cell-based;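 note: luciferase signal from HIV-1 Env mediated cell-cell fusion of effector and target cells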
Beta-galactosidase = Beta-galactosidase (Escherichia coli, UniProt Q8VNN2); assay: Dose response counterscreen for EBI2 assay utilizing the enzyme, b-galactosidase.; type: functional
[3] = biological target: Peroxisome proliferator-activated receptor gamma/Nuclear receptor coactivator 1 (Homo sapiens, UniProt P37231); assay: TR-FRET dose response biochemical High Throughput Screening assay for agonists of the steroid receptor coactivator 1 (SRC-1) recruitment by the peroxisome proliferator-activated receptor gamma (PPAR gamma): non-selective agonists. [Related pubchem assays (depositor defined):AID1300, AID1808, AID504735, AID631]; type: protein assay
Major prion protein = Major prion protein (Homo sapiens, UniProt P04156); type: functional, cell-based
cells [4] = assay: cells
[5] = biological target: Peroxisome proliferator-activated receptor gamma/Nuclear receptor coactivator 2 (Homo sapiens, UniProt P37231); assay: (§1) TR-FRET dose response biochemical High Throughput Screening assay for agonists of the steroid receptor coactivator 2 (SRC-2) recruitment by the peroxisome proliferator-activated receptor gamma (PPAR gamma): non-selective agonists. [Related pubchem assays: 1297, 1032 ]; type: functional
[6] = biological target: Peroxisome proliferator-activated receptor gamma/Nuclear receptor coactivator 3 (Homo sapiens, UniProt P37231); assay: as §1, with “3 (SRC-3)” for “2 (SRC-2)”, “1301 (Confirmation screen.), 1048 (Primary screen.)]” for “1297, 1032 ]”; type: functional
Kallikrein-7 = Kallikrein-7 (Homo sapiens, UniProt P49862); assay: Fluorescence Intensity-based biochemical primary high throughput dose response assay to identify activators of kallikrein-7 (K7) zymogen.
[7] = Luminescence-based cell-based high throughput dose response assay to identify activators of the DAF-12 from the parasite S. stercoralis (ssDAF-12).; type: functional
[8] = biological target: T1, Trace amine-associated receptor 1 (Homo sapiens, UniProt Q96RJ0); assay: Fluorescence-based cell-based high throughput dose response assay to identify agonists of the human trace amine associated receptor 1 (TAAR1).; type: functional
T1 sequence (Q96RJ0 whole entry): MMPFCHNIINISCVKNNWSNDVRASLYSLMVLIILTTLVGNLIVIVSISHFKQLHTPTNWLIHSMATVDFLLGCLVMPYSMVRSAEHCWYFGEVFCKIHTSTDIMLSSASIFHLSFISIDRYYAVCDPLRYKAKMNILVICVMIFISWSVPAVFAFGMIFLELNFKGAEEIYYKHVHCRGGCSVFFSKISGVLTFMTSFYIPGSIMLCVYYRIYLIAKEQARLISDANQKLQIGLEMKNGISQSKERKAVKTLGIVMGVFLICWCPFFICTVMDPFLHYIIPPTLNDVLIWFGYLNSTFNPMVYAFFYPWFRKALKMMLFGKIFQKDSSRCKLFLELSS

cells [9] = type: functional, cell-based
[10] = biological target: T1, Trace amine-associated receptor 1; assay: Counterscreen for agonists of the human trace amine associated receptor 1 (hTAAR1): Fluorescence-based cell-based high throughput dose response assay to identify hTAAR1 agonist that also desensitize TAAR1 receptor response.; type: functional
cells [11] = type: functional, cell-based; remark: listed apart in the source
HeLa = assay: viability loss in HeLa cells – cell-based, ATP luminescence, cherry-pick samples, cytotoxicity control, dose response (AID 687004); type: functional; conditions: Homo sapiens
Mu-type opioid receptor = Mu-type opioid receptor (Homo sapiens, UniProt P35372); type: functional, cell-based;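 note: U2OS cells with beta-arrestin recruitment to OPRM1 by beta-gal complementation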
[12] = biological target: 5-hydroxytryptamine receptor 2A (Mus musculus, UniProt P35363); type: functional, cell-based;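 note: CHO-K1 cells with tagged receptor and beta-arrestin; agonist potency measured as compound-induced activation of the receptor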
[13] = biological target: Matrix metalloproteinase-14 (Homo sapiens, UniProt P50281); assay: Dose Response confirmation of uHTS hits for a small molecule inhibitors of MT1-MMP activation in a fluorescence assay set 1.; type: functional

Question: For `CC1(C)N=C(N)N=C(N)N1CCCCc1ccccc1`, which AC50 [1] is on record?
Answer: 1.63 µM (active)

Question: What about the AC50 [2] of the same compound?
Answer: 1.34 µM (active)

Question: Which IC50 (Beta-galactosidase) does the source give for `CCOC(=O)N1CCN(C(=O)COc2ccc(Br)cc2)CC1` here?
Answer: > 80 µM (inactive)

Question: For `Cc1ccc(Sc2c(O)c3ccccc3n(C)c2=O)cc1`, which EC50 [3] is on record?
Answer: > 79.4 µM (inactive)

Question: And the IC50 (Major prion protein)?
Answer: 7.12 µM (active)

Question: What about the IC50 (cells [4]) of the same compound?
Answer: > 138 µM (inactive)

Question: And the EC50 [5]?
Answer: > 79.4 µM (not active)

Question: What about the EC50 [6] of the same compound?
Answer: > 79.4 µM (not active)

Question: With `N#Cc1ccc2c(c1)nc1ccccn12` as the compound, how does the EC50 (Kallikrein-7) read?
Answer: > 69.6 µM (inactive)

Question: With `COc1ccc(/C=C(/CC(=O)NCc2ccc(Cl)cc2)c2nc3ccccc3s2)cc1` as the compound, how does the EC50 (Kallikrein-7) read?
Answer: 2.56 µM (active)

Question: With `COc1ccc(-c2cn3ccccc3n2)cc1OC` as the compound, how does the IC50 [7] read?
Answer: > 67.5 µM (inactive)

Question: For `Cc1ccc(/C=C/C(=O)N2CCCN(C(=O)/C=C/c3ccc(C)cc3)CC2)cc1`, which IC50 (Beta-galactosidase) is on record?
Answer: > 80 µM (inactive)

Question: Which EC50 [8] does the source give for `Cc1cc(C)c(C#N)c(SCC(=O)c2cc(C)n(CCc3ccccc3)c2C)n1` here?
Answer: 1.15 µM (active)

Question: What about the EC50 (cells [9]) of the same compound?
Answer: > 29.9 µM (inactive)

Question: What about the IC50 [10] of the same compound?
Answer: 4.68 µM (active)

Question: What about the IC50 (cells [11]) of the same compound?
Answer: > 29.9 µM (inactive)

Question: For `COc1ccc(N(CC(=O)NCCSCc2ccc(C)cc2)S(=O)(=O)c2ccccc2)cc1`, which AC50 (HeLa) is on record?
Answer: > 52 µM (inactive)

Question: Which results are given for `CC1CC(C)CN(CCOc2cccc(Cl)c2Cl)C1` (stereo not given)?
Answer: EC50 (Mu-type opioid receptor): 92.5 µM (inactive); EC50 [12]: 0.281 µM (active)

Question: For `CN1C2=CC=CC=CC2=[N+](C)C12C=CC(=[N+]([O-])[O-])C=C2[N+](=O)[O-]` (stereo not given), which IC50 [13] is on record?
Answer: 54.2 µM (inactive)
